Data: patent US12343352B2, “N-(phenylsulfonyl)benzamides and related compounds as Bcl-2 inhibitors” (ASCENTAGE PHARMA (SUZHOU) CO., LTD., priority 2019, dated 2025)

Key:
CYP enzymes = assay: Comparative metabolism studies: metabolizing CYP enzymes and CYP inhibition/induction (liver microsome assays); type: in vitro ADME
Experimental: (§1) Metabolism studies of Compound 1 and Compound Z were evaluated in both mouse and dog liver microsome assays.

[1] = Metabolites in human plasma; type: in vivo
[2] = Steady state pharmacokinetics in patients following multiple oral doses; type: in vivo; settings: human, plasma, multiple oral doses of 400 mg once daily; for AUC(0-t): read-out: AUC(0-24 h); for half-life: read-out: T½ (converted)
[3] = Mouse liver microsome assay / metabolites in mouse plasma; type: in vitro ADME
Experimental: as §1

[4] = Dog liver microsome assay / metabolites in dog plasma; type: in vitro ADME
Experimental: as §1

[5] = Pharmacokinetic properties of Compound 1 compared with Compound Z (systemic exposure and tumor tissues); type: in vivo; settings: versus Compound Z

mainly metabolized by (CYP enzymes) (CYP enzymes; mouse and dog liver microsome assays) | major metabolite (>10%) in human plasma [1] | Cmax [2] [ng/mL] | Tmax [2] [h] | AUC(0-t) [2] [ng·h/mL] | half-life [2] [min] | other metabolites found in mouse plasma ([3]; mouse plasma) | metabolites found in dog plasma [4] | mainly metabolized by (CYP enzymes) (CYP enzymes; mouse, dog, microsomes) | major metabolite (>10%) in mouse plasma ([3]; mouse liver microsome assay) | Cmax in systemic exposure relative to Compound Z ([5]; systemic exposure) | half-life in systemic exposure relative to Compound Z ([5]; systemic exposure) | Cmax in tumor tissues relative to Compound Z ([5]; tumor tissues) | half-life in tumor tissues relative to Compound Z ([5]; tumor tissues) | SMILES | inhibition or induction of major CYP enzymes (CYP enzymes)
CYP3A4 and CYP3A5 | oxidative metabolite M27 | 2180 | 7 | 35500 | 1560 | minor oxidation metabolites | minor oxidation metabolites |  |  |  |  |  |  | CC1(C)CCC(CN2CCN(c3ccc(C(=O)NS(=O)(=O)c4ccc(NCC5CCOCC5)c([N+](=O)[O-])c4)c(Oc4cnc5[nH]ccc5c4)c3)CC2)=C(c2ccc(Cl)cc2)C1 [Compound Z, Venetoclax, reference compound] | 
 |  | 970 | 6 | 9960 | 266 |  | minor oxidation metabolites | CYP3A4 and CYP2C8 | amide bond hydrolysis M2 | higher | shorter | higher | similar | O=C(NS(=O)(=O)c1ccc(NC[C@H]2COCCO2)c([N+](=O)[O-])c1)c1ccc(N2CCN(CC3=C(c4ccc(Cl)cc4)CC4(CCC4)CC3)CC2)cc1Oc1cnc2[nH]ccc2c1 [Compound 1, (S)-N-((4-(((1,4-dioxan-2-yl)methyl)amino)-3-nitrophenyl)sulfonyl)-2-((1H-pyrrolo[2,3-b]pyridin-5-yl)oxy)-4-(4-((6-(4-chlorophenyl)spiro[3.5]non-6-en-7-yl)methyl)piperazin-1-yl)benzamide] | not found to inhibit or induce any major CYP enzymes
